Measured values as given in paper PMC10305617, “Sesquiterpene Coumarin Ethers with Selective Cytotoxic Activities from the Roots of Ferula huber-morathii Peşmen (Apiaceae) and Unequivocal Determination of the Absolute Stereochemistry of Samarcandin” (Pharmaceuticals, 2023).

Experiments:
Format in all cases: cell-based, Human
[1] = system: COLO 205, K-562, MCF-7 and HUVEC cell lines; experiment: MTS cytotoxicity, overall verbal grading over the cell line panel; conditions: authors' verbal summary over COLO 205, K-562, MCF-7, HUVEC
Source text: (§1) Human colorectal cancer (COLO 205, CCL-222), breast cancer (MCF-7, HTB-22), chronic myelogenous leukemia (K-562, CCL-243), and umbilical vein/vascular endothelium (HUVEC, CRL-1730) cell lines were obtained from the American Type Culture Collection. The COLO 205, MCF-7, K-562, and HUVEC cell lines were maintained in Roswell Park Memorial Institute ([…], Wisent, Montreal, QC, CANADA), Eagle′s Minimum Essential Medium (EMEM, Wisent, Montreal, QC, CANADA), Iscove’s Modified Dulbecco’s Medium (IMDM, Wisent, Montreal, QC, CANADA), and Dulbecco′s Modified Eagle Medium (DMEM, Wisent, Montreal, QC, CANADA) supplemented with 10% fetal bovine serum (Capricorn, Ebsdorfergrund, Germany), 100 U/mL penicillin, and 100 µg/mL streptomycin (Wisent, Montreal, QC, CANADA), respectively. All of the cell lines were cultured at 37 °C in a humidified atmosphere containing 5% CO2.
(§2) A 3-[4,5-dimethylthiazol-2-yl]-5-[3-carboxymethoxyphenyl]-2-[4-sulfophenyl]-2H-tetrazolium, inner salt (MTS) cell viability assay was performed to evaluate the cytotoxic activities of the sesquiterpene coumarin ethers isolated from Ferula huber-morathii. HUVEC (1 × 10^4), COLO 205 (3 × 10^4), K-562 (3 × 10^4), and MCF7 (5 × 10^4) were plated in 96-well plates. Then, 24 h later, the tested compounds were dissolved in DMSO, and the cells were exposed to the different concentrations (131.58–1.028 µM) of the compounds for 72 h. Cisplatin and doxorubicin were used as a positive control. Next, an MTS/phenazine methosulfate (PMS) (Promega, Madison, WI, USA and Sigma, St. Louis, MO, USA respectively) mixture was added to each well and incubated for 1–4 h at 37 °C. The absorbance was read on a microplate reader (Biotek, Winooski, VT, USA) at 490 nm. The cytotoxic activities of the compounds were expressed as an IC50 value. The % inhibition of cell proliferation was calculated using the formula: % Inhibition = [1-(A490test/A490cont)] × 100, where A490test = absorbance of the test sample and A490cont = absorbance of the control sample [88]. The values of the 50% inhibition of the cell proliferation (IC50) were calculated by locating the x-axis values corresponding to one-half of the absorbance values of the sample.

HUVEC = experiment: MTS cell viability (cytotoxic activity) assay, non-cancerous HUVEC; conditions: Homo sapiens, 72 h, mean ± SD, at least three experiments
Source text: as §1, §2

K-562 = experiment: MTS cell viability (cytotoxic activity) assay, K-562; conditions: for IC50: Homo sapiens, K562, K-562, MTS, 72 h, mean ± SD, at least three experiments
Source text: as §1, §2

COLO 205 = experiment: MTS cell viability (cytotoxic activity) assay, COLO 205; conditions: for IC50: Homo sapiens, COLO 205, MTS, 72 h, mean ± SD, at least three experiments
Source text: as §1, §2

MCF-7 = experiment: MTS cell viability (cytotoxic activity) assay, MCF-7; conditions: for IC50: Homo sapiens, MCF7, MCF-7, MTS, 72 h, mean ± SD, at least three experiments; for cytotoxic effect in words, MCF-7: verbal summary
Source text: as §1, §2

| Structure (SMILES) | cytotoxicity in words [1] | IC50 (HUVEC) | IC50 (K-562) | IC50 (COLO 205) | IC50 (MCF-7) | selectivity index K-562 (K-562; HUVEC versus K-562) | selectivity index COLO 205 (COLO 205; HUVEC versus COLO 205) | selectivity index MCF-7 (MCF-7; HUVEC versus MCF-7) | cytotoxic effect in words, MCF-7 (MCF-7) |
| --- | --- | --- | --- | --- | --- | --- | --- | --- | --- |
| C=C1CC[C@@H]2C(C)(C)C(=O)CC[C@@]2(C)[C@@H]1COc1ccc2ccc(=O)oc2c1 [Badrakemone (4), badrakemone] | little or no cytotoxicity | > 200 µM | > 200 µM | > 200 µM | > 200 µM | – | – | – | – |
| CN1C[C@H](c2cccc(C#N)c2)Oc2ccccc2C1=O [Compound 6, reference compound] | little or no cytotoxicity | – | – | – | – | – | – | – | – |
| CC1=CC[C@@H]2C(C)(C)[C@@H](O)CC[C@@]2(C)[C@@H]1COc1ccc2ccc(=O)oc2c1 [Conferol (2), conferol] | moderate or strong cytotoxicity | 61.03 ± 0.29 µM | 35.2 ± 0.89 µM | 11.2 ± 0.68 µM | 16 ± 0.46 µM | 1.73 | 5.45 | 3.82 | – |
| CC1(C)[C@H]2CC[C@@](C)(O)[C@H](COc3ccc4ccc(=O)oc4c3)[C@]2(C)CC[C@@H]1O [Deacetylkellerin (11), deacetylkellerin] | little or no cytotoxicity | > 200 µM | > 200 µM | > 200 µM | 47.62 ± 0.4 µM | – | – | – | – |
| COc1cccc2c1C(=O)c1c(O)c3c(c(O)c1C2=O)C[C@@](O)(C(=O)CO)C[C@@H]3O[C@H]1C[C@H](N)[C@H](O)[C@H](C)O1 [Doxorubicin, reference compound] | – | 0.2 ± 0.02 µM | 0.33 ± 0.02 µM | 0.08 µM | 2.83 ± 0.25 µM | – | – | – | – |
| C=C1CC[C@@H]2C(C)(C)[C@H](O)CC[C@@]2(C)[C@H]1COc1ccc2ccc(=O)oc2c1 [Farnesiferol A (6), farnesiferol A] | – | 74.4 ± 1.19 µM | > 200 µM | > 200 µM | > 200 µM | – | – | – | – |
| C=C1CCC2C(C)(C)C(OC(C)=O)CCC2(C)C1COc1ccc2ccc(=O)oc2c1 (centres unmarked) [Farnesiferol A acetate (7), farnesiferol A acetate] | moderate or strong cytotoxicity | 64.5 ± 1.56 µM | 52.7 ± 0.9 µM | 66 ± 1.89 µM | 27.4 ± 0.96 µM | – | – | – | moderate cytotoxic activity |
| CC1(C)[C@H](O)CC[C@]2(C)[C@@H]1CC[C@@](C)(O)[C@@H]2COc1ccc2ccc(=O)oc2c1 [Ferukrin (9), ferukrin] | little or no cytotoxicity | > 200 µM | > 200 µM | > 200 µM | 81.7 ± 1.96 µM | – | – | – | – |
| CC(=O)O[C@@H]1CC[C@]2(C)[C@H](CC[C@@](C)(O)[C@@H]2COc2ccc3ccc(=O)oc3c2)C1(C)C [Ferukrin acetate (10), ferukrin acetate] | little or no cytotoxicity | > 200 µM | 88.42 ± 0.85 µM | 106 ± 1.35 µM | > 200 µM | – | – | – | – |
| C=C1CC[C@@H]2C(C)(C)[C@@H](O)CC[C@@]2(C)[C@H]1COc1ccc2ccc(=O)oc2c1 [Gummosin (8), gummosin] | little or no cytotoxicity | 174.8 ± 0.28 µM | 95.5 ± 4.87 µM | > 200 µM | > 200 µM | – | – | – | – |
| CC(=O)O[C@H]1CC[C@]2(C)[C@H](CC[C@@](C)(O)[C@@H]2COc2ccc3ccc(=O)oc3c2)C1(C)C [Kellerin (12), kellerin] | – | 99.4 ± 1.63 µM | 78.1 ± 3.13 µM | 51.1 ± 1.57 µM | 18.24 ± 0.12 µM | – | – | – | moderate cytotoxic effect |
| CC1(O)CCC2C(C)(C)C(O)CCC2(C)C1COc1ccc2ccc(=O)oc2c1 (centres unmarked) [Samarcandin (14), samarcandin] | little or no cytotoxicity | 169 ± 2.68 µM | 143 ± 1.67 µM | 170 ± 3.62 µM | 83.27 ± 0.39 µM | – | – | – | – |
| CC(=O)O[C@H]1CC[C@]2(C)[C@H](CC[C@](C)(O)[C@H]2COc2ccc3ccc(=O)oc3c2)C1(C)C [Samarcandin acetate (15), samarcandin acetate] | little or no cytotoxicity | > 200 µM | 78.7 ± 1.65 µM | 70.29 ± 0.65 µM | > 200 µM | – | – | – | – |
| CC1(C)C(=O)CC[C@]2(C)[C@@H]1CC[C@](C)(O)[C@H]2COc1ccc2ccc(=O)oc2c1 [Samarcandone (13), samarcandone] | little or no cytotoxicity | 190 ± 5.2 µM | > 200 µM | 125 ± 2.13 µM | > 200 µM | – | – | – | – |
